Data from patent publication US11147781B2, “Methods for alleviating statin myopathy” (priority 2014, dated 2021).
Like-named read-outs stand apart in the source and are kept apart here.

Legend:
[1] = test system: patients with statin-induced myopathy (SIM); type: in vivo, human; parameters: triglycerides: unit not given here
Description: A clinical study was conducted to evaluate the effects of HMB on patients with statin-induced myopathy (SIM). A total of eighteen patients were evaluated for the study with informed written consent obtained. Of the eighteen patients, fourteen (14) ultimately qualified as having true statin myalgia and were enrolled in the study. All patients enrolled were under the care of a board certified cardiologist.
A summary of the enrolled patients and their outcomes is as follows: • 1. All 14 had type 2a or mixed hyperlipidemia. • 2. All 14 had been treated with multiple statin agents, in each case withdrawing from the statin agent due to myalgia/myopathy. • 3. Of the 14 patients enrolled, 4 had elevated CPKs (creatine phosphokinase, a biomarker for myositis/rhabdomyolysis) secondary to SIM. • 4. Five of the 14 patients had undergone prior percutaneous coronary intervention with stents. • 5. One of the 14 patients had undergone prior coronary bypass surgery. • 6. Four of the 14 patients had angiographically documented moderate coronary artery disease not requiring percutaneous coronary intervention (PCI)/coronary bypass. • 7. Four of the 18 patients were disqualified due to the following: • Patient's leg myalgia was secondary to angiographically proven peripheral vascular disease, not SIM and symptoms were consistent with this diagnosis. • Patient's unilateral leg pain was secondary to neuropathy, not SIM. • Patient complained of GI upset on combined statin+3-hydroxy 3-methybutyrate and medication was discontinued. […] All 14 qualified patients remained on combination statin (in some cases with Zetia to achieve target) plus HMB therapy after the initial duration of the study. As noted, of those who had previously discontinued statin therapy, all had been tried on multiple statin agents without success. • 9. Follow up was conducted with all patients including out-patient visits and phone conversation. • 10.
The free acid form was used in one patient who experienced major CPK elevations (900-1000 IU/L range) and disabling myalgia on statins.
For this study, patients were evaluated using multiple laboratories with variable lab normal ranges, which are included. In the patient population as a whole, the full spectrum of SIM is presented, including statin myalgia […] CPK elevation (myositis or rhabdomyolysis depending on severity), elevation of CPK without myalgia, post-statin elevation of CPK with and without pain, post-statin myalgia without CPK elevation, and, finally, statin-induced muscle weakness without myalgia. Also represented were other statin-induced side effects such as short-term memory loss and glucose intolerance.

[2] = free acid form versus calcium monohydrate form; cited from earlier work
acute rhabdomyolysis = assay: In-patient treatment of acute rhabdomyolysis with HMB; type: in vivo, human; conditions: HMB free acid (gel form) 6 g twice daily for 3 days, within 3 days
Source text: HMB administration is used to treat acute rhabdomyolysis in an in-patient setting.
Acute rhabdomyolysis is a rare but extreme and potentially life-threatening disorder that can occur in all groups in a setting of dehydration, trauma, and in younger age groups, intense exercise. […] At this time there is no known method of reversing rhabomyolysis apart from bed rest and hydration.
Protocol: measure patient's CPK; if value exceeds 10 times the upper limit of normal (200 IU/L, depending on laboratory-specific established normal range), initiate the following: • 1. Admit to ICU; • 2. Initiate IV 0.9% saline at 165 ml/hour; • 3. Initiate HMB free acid (gel form), dose 6 g twice daily for 3 days; • 4. Lab: CPK, BUN, creatinine, glucose and electrolytes every 12 hours for 3 days.

[3] = Patient A-1, 3 months, Crestor 10 mg daily + 2 g BID
[4] = Patient F-6, atorvastatin 40 mg + Zetia 10 mg + 2 g BID, 2-month follow-up

CCC(C)(C)C(=O)O[C@H]1C[C@@H](C)C=C2C=C[C@H](C)[C@H](CC[C@@H]3C[C@@H](O)CC(=O)O3)[C@H]21 [simvastatin, reference compound]
CPK under statin (severe rhabdomyolysis) ([1]; human, in vivo): 900-1000 IU/L

CC(C)(O)CC(=O)[O-].CC(C)(O)CC(=O)[O-].[Ca+2] [calcium HMB monohydrate]
CPK ([1]; Patient A-1, 2 g BID, 9 days later, before HMB 242, range 26-192): 87 IU/L
time to complete resolution of all pain ([1]; Patient A-1, 2 g BID, post-statin myositis, before re-introducing statin): 3 days
CPK [1, 3]: 110 IU/L
LDL [1, 3]: 72 mg/dL
symptoms [1, 3]: asymptomatic
LDL ([1]; Patient B-2, Vytorin 10/40 + 2 g BID, 50 days, before 168): 110 mg %
CPK ([1]; Patient B-2, Vytorin 10/40 + 2 g BID, 50 days, lab normal range 44-196): 173 IU/L
symptoms ([1]; Patient B-2, six months later, on Vytorin): completely asymptomatic
symptoms ([1]; Patient C-3, Crestor 10 mg daily + 2 g BID, three months): completely symptom free
myalgia ([1]; Patient D-4, Crestor 20 mg + Zetia 10 mg + 2 g BID, 37 days): resolved except for very mild discomfort climbing stairs
CPK ([1]; Patient D-4, Crestor 20 mg + Zetia 10 mg + 2 g BID, 37 days, before 705, range 26-192): 277 IU/L
LDL ([1]; Patient D-4, Crestor 20 mg + Zetia 10 mg + 2 g BID, 37 days, before >200 mg %): 49
CPK ([1]; Patient D-4, five months later, diabetes uncontrolled): 378 IU/L
bilateral calf myalgia ([1]; Patient E-5, 2 g BID, post-statin myalgia): resolved rapidly and completely
CPK ([1]; Patient E-5, after HMB treatment 2 g BID, range 39-308): 110 IU/L
myalgia [1, 4]: completely resolved
short term memory loss [1, 4]: improved
LDL ([1]; Patient F-6, atorvastatin 40 mg + Zetia 10 mg + 2 g BID, repeat): 43
CPK ([1]; Patient G-7, statin + 2 g BID, four weeks, range 29-168): 39 IU/L
LDL ([1]; Patient G-7, statin + 2 g BID, four weeks, reduced from 169): 108
symptoms ([1]; Patient G-7, statin resumed + 2 g BID, approximately four weeks): free of all symptoms of myalgia and muscle weakness
symptoms ([1]; Patient H-8, 2 g BID combination, one month): completely asymptomatic
bilateral thigh pain ([1]; Patient J-10, Lipitor 10 mg daily + 2 g BID, one month): complete resolution of bilateral thigh pain
CPK reduction ([1]; Patient K-11, 47 days): 32%
LDL reduction ([1]; Patient K-11, 47 days): 50%
LDL ([1]; Patient K-11, Crestor 20 mg daily + 2 g BID, 47 days, before 282): 139
CPK ([1]; Patient K-11, Crestor 20 mg daily + 2 g BID, 47 days, before 282 (29-168)): 191 IU/L
symptoms ([1]; Patient K-11, exercises near-daily): pain-free
LDL ([1]; Patient L-12, Crestor 5 mg daily + 2 g BID, two months, before 122): 100
triglycerides ([1]; Patient L-12, Crestor 5 mg daily + 2 g BID, two months, before 261): 193
symptoms ([1]; Patient L-12, two months): pain-free
CPK ([1]; Patient L-12, two months, range 29-168): 87 IU/L
LDL ([1]; Patient M-13, Crestor + 2 g BID, four months, before 244): 114
CPK ([1]; Patient M-13, Crestor + 2 g BID, four months, before 320, range 39-308): 210 IU/L
myalgia ([1]; Patient M-13, follow-up five months after enrollment): All myalgia had resolved
CPK reduction ([1]; Patient M-13, four months): 34%
LDL reduction ([1]; Patient M-13, four months): 53%
muscle weakness ([1]; Patient N-14, statin continued + 2 g BID, 13 days): symptoms of muscle weakness had resolved
CPK ([1]; Patient O-15, 2 months post-enrollment, 5 days/week weight program, before 274 (30-200)): 310 IU/L
LDL ([1]; Patient O-15, 2 months post-enrollment, before 30): 53
quadriceps/thigh pain ([1]; Patient O-15, combined statin therapy + 2 g BID, four weeks): complete resolution of all quadriceps/thigh pain
thigh pain ([1]; Patient P-16, simvastatin + 2 g BID, sixteen days, persistent groin stiffness): no longer had any thigh pain

CC(C)(O)CC(=O)O [HMB free acid]
bioavailability [2]: more bioavailable
CPK (acute rhabdomyolysis): below 200 IU/L
CPK ([1]; Patient D-4, free acid 2 gelcaps TID (3 g daily), after ten days, before 378): 257 IU/L
patient-reported state ([1]; Patient D-4, free acid 3 g daily, ten days): felt better
fasting blood glucose ([1]; Patient D-4, free acid 3 g daily, ten days, before >200): 100 mg %
symptoms ([1]; Patient O-15, converted to free acid 1 g TID, three months post-enrollment): completely symptom-free
change in CPK ([1]; free acid gel cap, one patient (D-4) with major CPK elevations on statins): significant decrease
symptoms ([1]; free acid gel cap, one patient (D-4), improvement over calcium monohydrate form): resolution in symptoms

CC(C)c1nc(N(C)S(C)(=O)=O)nc(-c2ccc(F)cc2)c1/C=C/[C@@H](O)C[C@@H](O)CC(=O)O [Crestor®, rosuvastatin, reference compound]
CPK under statin ([1]; human, in vivo): 320 IU/L
